Source: patent US8987459B2, “Compounds for the treatment of conditions associated with DGAT1 activity” (Novartis AG, priority 2013, dated 2015)
≈ marks a conversion by molar mass, not a printed value. Structures can show the parent of a compound that is named as a salt. Where two headings read alike, the source gives them in different places. Marks after values point to notes of the source that are not given here.

Experiments:
[1] = Hygroscopicity (relative humidity); assay type: physicochemical; conditions: for Change in crystallinity (PXRD): listed under hygroscopicity
[2] = Intrinsic dissolution rate; assay type: physicochemical
[3] = Oral exposure and bioavailability in dog; assay type: in vivo
Description: (§1) With a meglumine salt suspension at 100 mg/kg, about 33% decrease in plasma exposure was observed compared to solid dispersion. […] The solid dispersion formulation has several technical challenges which can be avoided by using a 2-((1R,4R)-4-(4-(5-(benzo[d]oxazol-2-ylamino)pyridin-2-yl)phenyl)cyclohexyl)acetic acid meglumine Form A suspension-based formulation.

[4] = Oral exposure and bioavailability in rat; assay type: in vivo; conditions: for dose linearity: suspension
Description: (§2) Direct in vivo comparison of 2-((1R,4R)-4-(4-(5-(benzo[d]oxazol-2-ylamino)pyridin-2-yl)phenyl)cyclohexyl)acetic acid meglumine and 2-((1R,4R)-4-(4-(5-(benzo[d]oxazol-2-ylamino)pyridin-2-yl)phenyl)cyclohexyl)acetic acid sodium salt suspensions were performed in rat and mouse. […] From this preclinical data, it was confirmed that 2-((1R,4R)-4-(4-(5-(benzo[d]oxazol-2-ylamino)pyridin-2-yl)phenyl)cyclohexyl)acetic acid meglumine is a better performing salt.

[5] = Oral bioavailability in mouse; assay type: in vivo; conditions: suspension at 30 mg/kg
Description: as §2

[6] = Aqueous kinetic solubility, physical blend with polymers and/or surfactants; assay type: physicochemical; conditions: simple physical blend with polymers and/or surfactants
Description: (§3) A standard capsule formulation with 2-((1R,4R)-4-(4-(5-(benzo[d]oxazol-2-ylamino)pyridin-2-yl)phenyl)cyclohexyl)acetic acid meglumine is the recommended CSF strategy to support the projected efficacious dose range in human (11-120 mg) based on following observations: • Low efficacious dose of 2-((1R,4R)-4-(4-(5-(benzo[d]oxazol-2-ylamino)pyridin-2-yl)phenyl)cyclohexyl)acetic acid in preclinical species (0.1-0.3 mg/kg) • High exposure multiples in preclinical species (rat and dog) from a suspension formulation of 2-((1R,4R)-4-(4-(5-(benzo[d]oxazol-2-ylamino)pyridin-2-yl)phenyl)cyclohexyl)acetic acid meglumine • Aqueous kinetic solubility of 2-((1R,4R)-4-(4-(5-(benzo[d]oxazol-2-ylamino)pyridin-2-yl)phenyl)cyclohexyl)acetic acid meglumine can be further improved (20-60 fold) from simple physical blend with polymers and/or surfactants • Improvement in exposure and dose linearity from 2-((1R,4R)-4-(4-(5-(benzo[d]oxazol-2-ylamino)pyridin-2-yl)phenyl)cyclohexyl)acetic acid meglumine over the sodium salt

[7] = Solubility in buffers, biorelevant media and water
[8] = Efficacious AUC in dog; assay type: in vivo; conditions: plasma, 0.3 mg/kg, at 0.3 mpk
Description: as §1

[9] = Efficacious dose in preclinical species; assay type: in vivo
Description: as §3

[10] = background statement, no medium given

Row | Hygroscopicity [%] 0-40% r.h. [1] [%] | Hygroscopicity [%] 0-95% r.h. [1] [%] | Change in crystallinity (PXRD) [1] | Intrinsic Dissolution Rate ([2]; pH 4.5 (50 mM Acetate)) | dose linearity ([4]; 30 and 100 mg/kg) | Solubility ([7]; FaSSIF V2) [µg/mL] | pH final of solubility sample ([7]; FaSSIF V2) | Solubility ([7]; SGF pH 2.0) [µg/mL] | pH final of solubility sample ([7]; SGF pH 2.0) | Solubility ([7]; Water) [µg/mL] | pH final of solubility sample ([7]; Water) | Solubility ([7]; pH 1 (0.1N HCl)) [µg/mL] | pH final of solubility sample ([7]; pH 1 (0.1N HCl)) | Solubility ([7]; pH 4.8 (50 mM Acetate)) [µg/mL] | pH final of solubility sample ([7]; pH 4.8 (50 mM Acetate)) | Solubility ([7]; pH 6.5 (50 mM Phosphate)) [µg/mL] | pH final of solubility sample ([7]; pH 6.5 (50 mM Phosphate)) | Solubility ([7]; FeSSIF V2) [µg/mL] | pH final of solubility sample ([7]; FeSSIF V2) | Intrinsic Dissolution Rate ([2]; pH 6.8 (50 mM Phosphate)) | Compound | also measured
1 | 4.52 | 21.77 | No |  |  | 95 | (8.32) | 3 | (3.73) | 1050 | (10.3) | 50 | (3.89) | <0.5 | (4.90) | <0.5 | (7.29) |  |  |  | O=C([O-])C[C@H]1CC[C@H](c2ccc(-c3ccc(Nc4nc5ccccc5o4)cn3)cc2)CC1.[K+] [Potassium, 2-((1R,4R)-4-(4-(5-(benzo[d]oxazol-2-ylamino)pyridin-2-yl)phenyl)cyclohexyl) acetate Potassium salt] | 
2 | 13.1 | 16.2 | No |  | not dose linear | 7 | (7.47) |  | (9.13) | 23 | (9.3) | <0.5 | (1.03) | <0.5 | (5.08) | 0.6 | (8.5) | 3 | (5.66) |  | O=C([O-])C[C@H]1CC[C@H](c2ccc(-c3ccc(Nc4nc5ccccc5o4)cn3)cc2)CC1.[Na+] [Sodium, 2-((1R,4R)-4-(4-(5-(benzo[d]oxazol-2-ylamino)pyridin-2-yl)phenyl)cyclohexyl) acetate sodium salt] | bioavailability ([4]; suspension at 30 mg/kg): 7.6%; bioavailability ([4]; suspension at 100 mg/kg): 4.6%; bioavailability [5]: 9.6%; Solubility [mg/ml] ([7]; SGF pH 2.0): 0.062* mg/ml
3 | 0.162 | 0.588 | No | BLQ |  | 10 | (6.86) | <0.5 | (2.37) | 70 | (10.4) | 150 | (2.79) | <0.5 | (4.88) | 40 | (7.27) | 1 | (6.26) | BLQ | O=C(O)C[C@H]1CC[C@H](c2ccc(-c3ccc(Nc4nc5ccccc5o4)cn3)cc2)CC1 [Meglumine Form A, Meglumine salt of 2-((1R,4R)-4-(4-(5-(benzo[d]oxazol-2-ylamino)pyridin-2-yl)phenyl)cyclohexyl)acetic acid] | 

Further lines, the compound ahead of its results:

Row | Compound | Hygroscopicity [%] 0-40% r.h. [1] [%] | Hygroscopicity [%] 0-95% r.h. [1] [%] | Change in crystallinity (PXRD) [1] | Intrinsic Dissolution Rate ([2]; pH 4.5 (50 mM Acetate)) | dose linearity ([4]; 30 and 100 mg/kg) | Solubility ([7]; FaSSIF V2) [µg/mL] | pH final of solubility sample ([7]; FaSSIF V2) | Solubility ([7]; SGF pH 2.0) [µg/mL] | pH final of solubility sample ([7]; SGF pH 2.0) | Solubility ([7]; Water) [µg/mL] | pH final of solubility sample ([7]; Water) | Solubility ([7]; pH 1 (0.1N HCl)) [µg/mL] | pH final of solubility sample ([7]; pH 1 (0.1N HCl)) | Solubility ([7]; pH 4.8 (50 mM Acetate)) [µg/mL] | pH final of solubility sample ([7]; pH 4.8 (50 mM Acetate)) | Solubility ([7]; pH 6.5 (50 mM Phosphate)) [µg/mL] | pH final of solubility sample ([7]; pH 6.5 (50 mM Phosphate)) | Solubility ([7]; FeSSIF V2) [µg/mL] | pH final of solubility sample ([7]; FeSSIF V2) | Intrinsic Dissolution Rate ([2]; pH 6.8 (50 mM Phosphate)) | also measured
4 | C[N+](C)(C)CCO.O=C(O)C[C@H]1CC[C@H](c2ccc(-c3ccc(Nc4nc5ccccc5o4)cn3)cc2)CC1.O=C([O-])C[C@H]1CC[C@H](c2ccc(-c3ccc(Nc4nc5ccccc5o4)cn3)cc2)CC1 [Hemi-choline, 2-((1R,4R)-4-(4-(5-(benzo[d]oxazol-2-ylamino)pyridin-2-yl)phenyl)cyclohexyl) acetate Hemi-choline salt] | 1.44 | 15.95 | No | BLQ |  |  |  |  |  |  |  |  |  |  |  |  |  |  |  |  | Solubility (pH 1): 140 µg/mL; pH final of solubility sample (pH 1): (1.06); Solubility (pH 2): 95 µg/mL; pH final of solubility sample (pH 2): (1.05); Solubility (pH 4.8): 15 µg/mL; pH final of solubility sample (pH 4.8): (4.76); Solubility (pH 6.5): 30 µg/mL; pH final of solubility sample (pH 6.5): (7.15)
5 | O=C(O)C[C@H]1CC[C@H](c2ccc(-c3ccc(Nc4nc5ccccc5o4)cn3)cc2)CC1 [meglumine salt, meglumine salt of 2-((1R,4R)-4-(4-(5-(benzo[d]oxazol-2-ylamino)pyridin-2-yl)phenyl)cyclohexyl)acetic acid] |  |  |  |  | dose linear |  |  |  |  |  |  |  |  |  |  |  |  |  |  |  | bioavailability ([3]; plasma, po, 30 mg/kg solution dose (sodium material dissolved in 10% HPβCD in purified water or PBS), read-out: Absolute oral bioavailability): 1.5%; decrease in plasma exposure compared to solid dispersion ([3]; suspension at 100 mg/kg): about 33%; exposure over the efficacious AUC ([3]; suspension at 100 mg/kg): ~150 ×; dose linearity ([4]; 300 mpk): non-linear; bioavailability ([4]; in vivo, oral, 300 mg/kg, suspension at 300 mpk, read-out: bioavailability): 1.9%; bioavailability ([4]; in vivo, oral, suspension at 30 mg/kg, read-out: bioavailability): 3.1%; bioavailability ([4]; in vivo, oral, suspension at 100 mg/kg, read-out: bioavailability): 3.8%; bioavailability ([5]; in vivo, oral, read-out: bioavailability): 17.3%; improvement of aqueous kinetic solubility [6]: 20-60 fold
6 | O=C(O)C[C@H]1CC[C@H](c2ccc(-c3ccc(Nc4nc5ccccc5o4)cn3)cc2)CC1 [Free acid, 2-((1R,4R)-4-(4-(5-(benzo[d]oxazol-2-ylamino)pyridin-2-yl)phenyl)cyclohexyl)acetic acid] | 0.136 | 0.251 | No | 0.013 mg min^−1 cm^−2 |  |  | (6.34) |  | (2.38) | 10 (≈ 23.4 µM) | (7.63) | <0.5 | (1.59) |  | (4.76) | <0.5 | (6.87) | 60 (≈ 140 µM) | (5.53) | BLQ | intrinsic dissolution (in words) [2, 10]: low; AUC [8]: 0.132 µM·h; efficacious dose in preclinical species [9]: 0.1 to 0.3 mg/kg; Solubility ([7]; 50 mM acetate buffer, pH 4.8, aqueous buffer, Solubility [mg/ml], pH 4.8 (50 mM Acetate)): < 0.5 µg/mL; Solubility ([7]; FaSSIF V2, fassif, Solubility [mg/ml], FaSSIF V2): 20 µg/mL (≈ 46.8 µM); Solubility ([7]; SGF, pH 2, simulated gastric fluid, Solubility [mg/ml], SGF pH 2.0): < 0.5 µg/mL; solubility (in words) [7, 10]: low
